Results reported in US20130022620A1, “ASSAYS AND METHODS PERTAINING TO PRE-AMYLOID INTERMEDIATES” (priority 2011, published 2013).
Positions of bridges follow the written chain, without caps; N, C: chain ends. No end group written: not given here.

Assays:
rat INS-1 β-cells = test: AlamarBlue cell viability assay of β-cells; format: cell-based
Description: Transformed rat insulinoma-1 (INS-1) β-cells (which express RAGE) are a pancreatic beta cell line commonly used for studies of h-IAPP induced toxicity. INS-1 cells were grown in RPMI 1640 supplemented with 10% fetal bovine serum (FBS), 11 mM glucose, 10 mM Hepes, 2 mM L-glutamine, 1 mM sodium pyruvate, 50 μM β-mercaptoethanol, 100 U/ml penicillin, and […] streptomycin. Cells were maintained at 37° C./5% CO2.
Cyto-toxicity was measured by AlamarBlue assay. INS-1 β-cells were seeded at a density of 30,000 cells per well in 96-well plates and cultured for 24 hours prior to stimulation with IAPP. Human and rat IAPP were dissolved and incubated in 16 mM tris HCl (pH 7.4, 25° C.) prior to cell stimulation. AlamarBlue was diluted ten-fold in culture media and cells were incubated for 5 hours at 37° C. Fluorescence (excitation 530; emission 590 nm) was measured on a Beckman Coulter DTX880 fluorescent plate reader. Values calculated were relative to those of control cells treated with buffer only. All values represent means±SEM (n=3).
Changes in cell morphology were examined by light microscopy to provide a second method of evaluating cell viability. Transformed rat INS-1 beta cells were photographed immediately prior to assessment of toxicity by Alamar blue cell viability assays. Images were taken using an Olympus BX-61 light microscope.

h-IAPP = biological target: T1, h-IAPP (Homo sapiens, UniProt P10997); settings: I26P point mutant; Fanling et al. 2010; cited from earlier work
T1 sequence (P10997 34-70 limits assumed): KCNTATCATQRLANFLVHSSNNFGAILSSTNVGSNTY

sRAGE [1] = biological target: T2, sRAGE (Homo sapiens, UniProt Q15109); test: Difference CD of IAPP peptides with sRAGE; format: binding; settings: end point of the reactions
T2 construct: the soluble extracellular domain of RAGE (sRAGE); made in house; host or cells: Sf9 insect cells (baculovirus)
Description: CD measurements of IAPP, sRAGE and IAPP/sRAGE reactions were taken at various incubation times. Far-UV CD experiments monitor the development of secondary structure of h-IAPP species and give insight into the conformational requirement for IAPP/RAGE-binding. All CD experiments were performed on an Applied Photophysics circular dichroism spectrophotometer by directly transferring 300 μL of peptide solution from kinetic assays into a 0.1 cm quartz cuvette a few minutes prior to data collection. The CD spectra for sRAGE and tris HCl buffer was subtracted from all RAGE/IAPP mixtures. The final far-UV CD data was collected over the range of 190 to 260 nm. Final solution conditions contained 16 mM tris HCl (pH 7.4).

sRAGE [2] = biological target: T2, sRAGE; test: Tryptophan fluorescence quenching assay of sRAGE binding; settings: sRAGE added at different time points of the reaction, 1:1 molar ratio
From the text: The quenching of tryptophan fluorescence indicates binding. Fluorescence measurements were made at right angle in a […] dual path length quartz cuvette, using a Photon Technology International fluorescent spectrometer (280 nm excitation and 350 nm emission). Background fluorescence from buffer and IAPP peptides were negligible. The fluorescence quantum yield reported for each time point is an average of 20 reads over 20 seconds (2.5 nm bandwidth and 1 second integration time). Final solution conditions contained 16 mM tris HCl (pH 7.4).

[3] = Thioflavin-T kinetics and TEM of amyloid formation by IAPP peptides; format: physicochemical
Description: Thioflavin-T fluorescence was used to monitor the time course of h-IAPP amyloid formation in the presence and absence of sRAGE. To identify which form(s) of h-IAPP interact with RAGE, sRAGE was added to h-IAPP at various time points during the h-IAPP amyloid formation reaction. Aliquots of the reaction mixture were analyzed by adding 100 uL aliquots of the amyloid formation reaction to 96-well plates containing 8 uL of 60 uM thioflavin-T solution at various incubation times after initiation of the amyloid formation reaction. Fluorescence was measured using a Beckman Coulter DTX880 fluorescent plate reader (excitation: 445 nm and emission: 485 nm). Final solution conditions contained 16 mM tris HCl and […] thioflavin-T (pH 7.4). […] All values represent means±SEM (n=3).
Transient kinetic species of h-IAPP were characterized by TEM. TEM images confirm the presence or absence of amyloid which were indicated by thioflavin-T fluorescence. Aliquots (4 μl) were removed from the reaction mixtures monitored by thioflavin-T assays, placed on a carbon-coated 200-mesh copper grid and negatively stained with saturated uranyl acetate. The samples were imaged with a Philips CM12 transmission electron microscope at the New York University electron microscopy core facility. Final solution conditions contained 16 mM tris HCl (pH 7.4).

[4] = Ser-20 substitution; Cao et al. 2011; cited from earlier work

T2 sequence (Q15109 23-342): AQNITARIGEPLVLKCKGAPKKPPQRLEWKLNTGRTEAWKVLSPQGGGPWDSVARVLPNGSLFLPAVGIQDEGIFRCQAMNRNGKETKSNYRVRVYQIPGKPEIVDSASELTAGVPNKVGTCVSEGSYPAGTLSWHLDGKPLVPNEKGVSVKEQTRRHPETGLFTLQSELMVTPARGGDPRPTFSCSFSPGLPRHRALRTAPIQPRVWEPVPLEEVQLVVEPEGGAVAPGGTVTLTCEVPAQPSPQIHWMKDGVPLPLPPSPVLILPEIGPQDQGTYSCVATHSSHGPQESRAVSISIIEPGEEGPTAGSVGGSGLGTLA

Row | Substance | toxicity by itself (rat INS-1 β-cells; 40 uM, pH 7.4 25° C.) | effect of the amyloid inhibitor on duration of h-IAPP toxicity (rat INS-1 β-cells; 1:1 mixture with 40 uM h-IAPP) | inhibition of h-IAPP amyloid formation (h-IAPP) | interaction with sRAGE (difference CD) (sRAGE [1]) | binding to sRAGE (tryptophan fluorescence quenching) (sRAGE [2]) | amyloid formation (thioflavin-T) ([3]; peptide by itself) | lag phase and rate of amyloid formation [4] | onset and duration of toxicity compared to wild type (rat INS-1 β-cells; side-by-side with kinetics, 20 uM for the Ser-20 mutants) | rate of aggregation compared to wild type ([3]; 20 uM, pH 7.4 25° C.)
1 | I26P-IAPP: I26P point mutant of h-IAPP, inhibitor of h-IAPP amyloid formation (KCNTATCATQRLANFLVHSSNNFGAPLSSTNVGSNTY-NH2; disulfide 2-7; N-terminus assumed; SMILES CC(C)C[C@H](NC(=O)[C@H](CCCNC(=N)N)NC(=O)[C@H](CCC(N)=O)NC(=O)[C@@H](NC(=O)[C@H](C)NC(=O)[C@@H]1CSSC[C@H](NC(=O)[C@@H](N)CCCCN)C(=O)N[C@@H](CC(N)=O)C(=O)N[C@@H]([C@@H](C)O)C(=O)N[C@@H](C)C(=O)N[C@@H]([C@@H](C)O)C(=O)N1)[C@@H](C)O)C(=O)N[C@@H](C)C(=O)N[C@@H](CC(N)=O)C(=O)N[C@@H](Cc1ccccc1)C(=O)N[C@@H](CC(C)C)C(=O)N[C@H](C(=O)N[C@@H](Cc1c[nH]cn1)C(=O)N[C@@H](CO)C(=O)N[C@@H](CO)C(=O)N[C@@H](CC(N)=O)C(=O)N[C@@H](CC(N)=O)C(=O)N[C@@H](Cc1ccccc1)C(=O)NCC(=O)N[C@@H](C)C(=O)N1CCC[C@H]1C(=O)N[C@@H](CC(C)C)C(=O)N[C@@H](CO)C(=O)N[C@@H](CO)C(=O)N[C@H](C(=O)N[C@@H](CC(N)=O)C(=O)N[C@H](C(=O)NCC(=O)N[C@@H](CO)C(=O)N[C@@H](CC(N)=O)C(=O)N[C@H](C(=O)N[C@@H](Cc1ccc(O)cc1)C(N)=O)[C@@H](C)O)C(C)C)[C@@H](C)O)C(C)C) | is not toxic by itself | increases the duration of toxicity | potent inhibitor of h-IAPP amyloid formation | does not interact | No binding was detected | does not form amyloid |  |  | 
2 | S20G-IAPP: S20G mutation of human IAPP, SEQ ID NO: 3 (KCNTATCATQRLANFLVHSGNNFGAILSSTNVGSNTY-NH2; disulfide 2-7; N-terminus assumed; SMILES CC[C@H](C)[C@H](NC(=O)[C@H](C)NC(=O)CNC(=O)[C@H](Cc1ccccc1)NC(=O)[C@H](CC(N)=O)NC(=O)[C@H](CC(N)=O)NC(=O)CNC(=O)[C@H](CO)NC(=O)[C@H](Cc1c[nH]cn1)NC(=O)[C@@H](NC(=O)[C@H](CC(C)C)NC(=O)[C@H](Cc1ccccc1)NC(=O)[C@H](CC(N)=O)NC(=O)[C@H](C)NC(=O)[C@H](CC(C)C)NC(=O)[C@H](CCCNC(=N)N)NC(=O)[C@H](CCC(N)=O)NC(=O)[C@@H](NC(=O)[C@H](C)NC(=O)[C@@H]1CSSC[C@H](NC(=O)[C@@H](N)CCCCN)C(=O)N[C@@H](CC(N)=O)C(=O)N[C@@H]([C@@H](C)O)C(=O)N[C@@H](C)C(=O)N[C@@H]([C@@H](C)O)C(=O)N1)[C@@H](C)O)C(C)C)C(=O)N[C@@H](CC(C)C)C(=O)N[C@@H](CO)C(=O)N[C@@H](CO)C(=O)N[C@H](C(=O)N[C@@H](CC(N)=O)C(=O)N[C@H](C(=O)NCC(=O)N[C@@H](CO)C(=O)N[C@@H](CC(N)=O)C(=O)N[C@H](C(=O)N[C@@H](Cc1ccc(O)cc1)C(N)=O)[C@@H](C)O)C(C)C)[C@@H](C)O; listed as Homo sapiens) |  |  |  |  |  |  | abolishes the lag phase and increases the rate of amyloid formation | faster onset and shorter duration of toxicity compared to wild type | faster rate of aggregation
